# Measurements taken from patent publication US9428492B2, “Secondary alcohol substituted triazoles as PDE10 inhibitors” (Merck Sharp & Dohme Corp., priority 2012, dated 2016).
# Target: human PDE10A2 (Homo sapiens (Human), UniProt Q9Y233)
# Assay: PDE10 fluorescence polarization (IMAP FP) inhibition assay
# Assay type: biochemical
# Settings: read-out: PDE10a Ki
# Description: The activity of the compounds in accordance with the present invention as PDE10 inhibitors may be readily determined without undue experimentation using a fluorescence polarization (FP) methodology that is well known in the art (Huang, W., et al., J. Biomol Screen, 2002, 7: 215).
# In a typical experiment the PDE10 inhibitory activity of the compounds of the present invention was determined in accordance with the following experimental method. PDE10A2 was amplified from human fetal brain cDNA (Clontech, Mountain View, Calif.) using a forward primer corresponding to nucleotides 56-77 of human PDE10A2 (Accession No. AF127480, Genbank Identifier 4894716), containing a Kozak consensus sequence, and a reverse primer corresponding to nucleotides 2406-2413 of human PDE10A2 (Accession No. AF127480, Genbank Identifier 4894716). Amplification with Easy-A polymerase (Stratagene, La Jolla, Calif.) was 95° C. for 2 minutes followed by thirty three cycles of 95° C. for 40 seconds, 55° C. for 30 seconds, and 72° C. for 2 minutes 48 seconds. Final extension was 72° C. for 7 minutes. The PCR product was TA cloned into pcDNA3.2-TOPO (Invitrogen, Carlsbad, Calif.) according to standard protocol. AD293 cells with 70-80% confluency were transiently transfected with human PDE10A2/pcDNA3.2-TOPO using Lipofectamine 2000 according to manufacturer specifications (Invitrogen, Carlsbad, Calif.). Cells were harvested 48 hours post-transfection and lysed by sonication (setting 3, 10×5 sec pulses) in a buffer containing 20 mM HEPES, 1 mM EDTA and protease inhibitor cocktail (Roche). Lysate was collected by centrifugation at 75,000×g for 20 minutes. Supernatant containing the cytoplasmic fraction was used for evaluation of PDE10A2 activity. The fluorescence polarization assay for cyclic nucleotide phosphodiesterases was performed using an IMAP® FP kit supplied by Molecular Devices, Sunnyvale, Calif. (product # R8139). IMAP® technology has been applied previously to phosphodiesterase assays (Huang, W., et al., J. Biomol Screen, 2002, 7: 215). Assays were performed at room temperature in 384-well microtiter plates with an incubation volume of 20.2 μL. Solutions of test compounds were prepared in DMSO and serially diluted with DMSO to yield 8 μL of each of 10 solutions differing by 3-fold in concentration, at 32 serial dilutions per plate. […] 0% of inhibition is determined by using DMSO (1% final concentrations).
# A Labcyte Echo 555 (Labcyte, Sunnyvale, Calif.) is used to dispense 200 nL from each well of the titration plate to the 384 well assay plate. A solution of enzyme (1/1600 dilution from aliquots; sufficient to produce 20% substrate conversion) and a separate solution of FAM-labeled cAMP PDE from Molecular Devices (product # R7506), at a final concentration of 50 nM are made in the assay buffer (10 mM Tris HCl, pH 7.2, 10 mM MgCl2, 0.05% NaN3 0.01% Tween-20, and 1 mM DTT). The enzyme and the substrate are then added to the assay plates in two consecutive additions of 10 μL, and then shaken to mix. The reaction is allowed to proceed at room temperature for 30 minutes. […] The enzymatic reaction is stopped by addition of 60 μL of the binding solution to each well of the assay plates and the plates are sealed and shaken for 10 seconds. The plate was incubated at room temperature for at least one hour prior to determining the fluorescence polarization (FP). The parallel and perpendicular fluorescence of each well of the plate was measured using a Perkin Elmer EnVision™ plate reader (Waltham, Mass.).
# Fluorescence polarization (mP) was calculated from the parallel (S) and perpendicular (P) fluorescence of each sample well and the analogous values for the median control well, containing only substrate (So and Po), using the following equation: Polarization (mP)=1000*(S/So−P/Po)/(S/So+P/Po).
# Dose-inhibition profiles for each compound were characterized by fitting the mP data to a four-parameter equation given below.
# human PDE10A2, sequence (Q9Y233 267-1055): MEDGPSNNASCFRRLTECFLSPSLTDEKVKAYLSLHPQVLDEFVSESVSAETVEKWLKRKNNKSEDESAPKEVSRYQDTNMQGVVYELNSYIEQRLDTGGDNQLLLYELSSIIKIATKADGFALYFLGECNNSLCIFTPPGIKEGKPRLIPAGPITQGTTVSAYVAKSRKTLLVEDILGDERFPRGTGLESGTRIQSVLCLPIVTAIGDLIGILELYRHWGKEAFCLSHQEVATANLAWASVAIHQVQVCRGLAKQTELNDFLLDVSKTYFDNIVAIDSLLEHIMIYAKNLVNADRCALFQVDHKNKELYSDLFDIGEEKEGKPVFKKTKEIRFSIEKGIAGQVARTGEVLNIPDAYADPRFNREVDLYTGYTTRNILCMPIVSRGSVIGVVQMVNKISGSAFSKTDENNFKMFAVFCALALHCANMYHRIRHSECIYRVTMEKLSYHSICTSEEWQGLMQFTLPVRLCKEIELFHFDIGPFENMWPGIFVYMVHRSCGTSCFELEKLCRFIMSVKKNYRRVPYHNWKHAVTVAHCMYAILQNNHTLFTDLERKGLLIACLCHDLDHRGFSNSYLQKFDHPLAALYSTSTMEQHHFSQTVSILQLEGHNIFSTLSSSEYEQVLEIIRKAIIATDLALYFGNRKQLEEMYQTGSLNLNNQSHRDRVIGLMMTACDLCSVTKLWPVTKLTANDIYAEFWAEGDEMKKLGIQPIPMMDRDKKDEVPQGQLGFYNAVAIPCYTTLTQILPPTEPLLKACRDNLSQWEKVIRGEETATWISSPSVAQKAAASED
compound,measurement,value
"Cc1nc([C@@H]2C[C@H]2c2nc3ccccc3n2C)cc(-n2nc(C)nc2C(O)C(C)C)n1 (stereo partly drawn) [Example 21, 2-methyl-1-(3-methyl-1-(2-methyl-6-((1R,2R)-2-(1-methyl-1H-benzo[d]imidazol-2-yl)cyclopropyl)pyrimidin-4-yl)-1H-1,2,4-triazol-5-yl)propan-1-ol]",Ki,0.47 nM
"Cc1nc(N2CC(c3nc4ccccc4n3C)C2)cc(-n2nc(C)nc2C(O)CC(F)(F)F)n1 (stereo not shown) [Example 7, 3,3,3-trifluoro-1-(3-methyl-1-(2-methyl-6-(3-(1-methyl-1H-benzo[d]imidazol-2-yl)azetidin-1-yl)pyrimidin-4-yl)-1H-1,2,4-triazol-5-yl)propan-1-ol]",Ki,3.2 nM
"Cc1nc(C2C[C@H]2c2nc3ccccc3n2C)cc(-n2nc(C)nc2C(O)C(F)(F)F)n1 (stereo partly drawn) [Example 20, 2,2,2-trifluoro-1-(3-methyl-1-(2-methyl-6-((1R,2R)-2-(1-methyl-1H-benzo[d]imidazol-2-yl)cyclopropyl)pyrimidin-4-yl)-1H-1,2,4-triazol-5-yl)ethanol]",Ki,0.55 nM
"Cc1nc(N2CC(c3nc4ccccc4n3C)C2)cc(-n2nc(C)nc2C(O)C(F)(F)F)n1 (single isomer, unassigned) [Example 3a, 2,2,2-trifluoro-1-(3-methyl-1-(2-methyl-6-(3-(1-methyl-1H-benzo[d]imidazol-2-yl)azetidin-1-yl)pyrimidin-4-yl)-1H-1,2,4-triazol-5-yl)ethanol]",Ki,1 nM
"Cc1nc(N2CC(c3nc4ccccc4n3C)C2)cc(-n2nc(C)nc2C(O)C2CC2)n1 (stereo not shown) [Example 6, cyclopropyl(3-methyl-1-(2-methyl-6-(3-(1-methyl-1H-benzo[d]imidazol-2-yl)azetidin-1-yl)pyrimidin-4-yl)-1H-1,2,4-triazol-5-yl)methanol]",Ki,0.36 nM
"Cc1nc(C2C[C@H]2c2nc3ccccc3n2C)cc(-n2nc(C)nc2C(O)C(F)(F)F)n1 (single isomer, unassigned) [Example 20a]",Ki,0.58 nM
"Cc1nc(C2C[C@H]2c2nc3ccccc3n2C)cc(-n2nc(C)nc2C(O)C(F)(F)F)n1 (single isomer, unassigned) [Example 20b]",Ki,0.92 nM
"Cc1nc([C@H](C)O)n(-c2cc([C@@H]3C[C@H]3c3nc4ccccc4n3C)nc(C(F)(F)F)n2)n1 [Example 17, (S)-1-(3-methyl-1-(6-((1R,2R)-2-(1-methyl-1H-benzo[d]imidazol-2-yl)cyclopropyl)-2-(trifluoromethyl)pyrimidin-4-yl)-1H-1,2,4-triazol-5-yl)ethanol]",Ki,2.8 nM
"Cc1nc(C(C)O)n(-c2cc(N3CC(c4nc5ccccc5n4C)C3)nc(C3CC3)n2)n1 (single isomer, unassigned) [Example 10a, 1-(1-(2-cyclopropyl-6-(3-(1-methyl-1H-benzo[d]imidazol-2-yl)azetidin-1-yl)pyrimidin-4-yl)-3-methyl-1H-1,2,4-triazol-5-yl)ethanol]",Ki,0.13 nM
"Cc1nc(C(C)O)n(-c2cc(N3CC(c4nc5ccccc5n4C)C3)nc(C(F)(F)F)n2)n1 (single isomer, unassigned) [Example 8b, 1-(3-methyl-1-(6-(3-(1-methyl-1H-benzo[d]imidazol-2-yl)azetidin-1-yl)-2-(trifluoromethyl)pyrimidin-4-yl)-1H-1,2,4-triazol-5-yl)ethanol]",Ki,1 nM
"Cc1nc([C@@H]2C[C@H]2c2nc3ccccc3n2C)cc(-n2nc(C)nc2[C@@H](O)c2ccccc2)n1 [Example 16, (S)-(3-methyl-1-(2-methyl-6-((1R,2R)-2-(1-methyl-1H-benzo[d]imidazol-2-yl)cyclopropyl)pyrimidin-4-yl)-1H-1,2,4-triazol-5-yl)(phenyl)methanol]",Ki,0.62 nM
"Cc1nc(C(C)O)n(-c2cc(N3CC(c4nc5ccccc5n4C)C3)nc(C(F)(F)F)n2)n1 (single isomer, unassigned) [Example 8a, 1-(3-methyl-1-(6-(3-(1-methyl-1H-benzo[d]imidazol-2-yl)azetidin-1-yl)-2-(trifluoromethyl)pyrimidin-4-yl)-1H-1,2,4-triazol-5-yl)ethanol]",Ki,0.53 nM
"Cc1nc(N2CC(c3nc4ccccc4n3C)C2)cc(-n2nc(C)nc2C(O)CF)n1 (stereo not shown) [Example 12, 2-fluoro-1-(3-methyl-1-(2-methyl-6-(3-(1-methyl-1H-benzo[d]imidazol-2-yl)azetidin-1-yl)pyrimidin-4-yl)-1H-1,2,4-triazol-5-yl)ethanol]",Ki,0.34 nM
"Cc1nc(N2CC(c3nc4ccccc4n3C)C2)cc(-n2nc(C)nc2C(O)C(F)(F)F)n1 (racemic) [Example 3, 2,2,2-trifluoro-1-(3-methyl-1-(2-methyl-6-(3-(1-methyl-1H-benzo[d]imidazol-2-yl)azetidin-1-yl)pyrimidin-4-yl)-1H-1,2,4-triazol-5-yl)ethanol]",Ki,0.11 nM
"Cc1nc(N2CC(c3nc4ccccc4n3C)C2)cc(-n2nc(C)nc2C(O)C2CC2)n1 (single isomer, unassigned) [Example 6b, cyclopropyl(3-methyl-1-(2-methyl-6-(3-(1-methyl-1H-benzo[d]imidazol-2-yl)azetidin-1-yl)pyrimidin-4-yl)-1H-1,2,4-triazol-5-yl)methanol]",Ki,2.6 nM
"Cc1nc([C@H](C)O)n(-c2cc([C@@H]3C[C@H]3c3nc4ccccc4n3C)nc(C3CC3)n2)n1 [Example 18, (S)-1-(1-(2-cyclopropyl-6-((1R,2R)-2-(1-methyl-1H-benzo[d]imidazol-2-yl)cyclopropyl)pyrimidin-4-yl)-3-methyl-1H-1,2,4-triazol-5-yl)ethanol]",Ki,0.36 nM
"Cc1nc(N2CC(c3nc4ccccc4n3C)C2)cc(-n2nc(C)nc2C(O)C(C)C)n1 (single isomer, unassigned) [Example 5a, 2-methyl-1-(3-methyl-1-(2-methyl-6-(3-(1-methyl-1H-benzo[d]imidazol-2-yl)azetidin-1-yl)pyrimidin-4-yl)-1H-1,2,4-triazol-5-yl)propan-1-ol]",Ki,0.34 nM
"Cc1nc(C(C)O)n(-c2cc(N3CC(c4nc5ccccc5n4C)C3)nc(C3CC3)n2)n1 (stereo not shown) [Example 10, 1-(1-(2-cyclopropyl-6-(3-(1-methyl-1H-benzo[d]imidazol-2-yl)azetidin-1-yl)pyrimidin-4-yl)-3-methyl-1H-1,2,4-triazol-5-yl)ethanol]",Ki,0.21 nM
"Cc1nc(C(C)O)n(-c2cc(N3CC(c4nc5ccccc5n4C)C3)nc(C3CC3)n2)n1 (single isomer, unassigned) [Example 10b, 1-(1-(2-cyclopropyl-6-(3-(1-methyl-1H-benzo[d]imidazol-2-yl)azetidin-1-yl)pyrimidin-4-yl)-3-methyl-1H-1,2,4-triazol-5-yl)ethanol]",Ki,0.39 nM
"Cc1nc(N2CC(c3nc4ccccc4n3C)C2)cc(-n2nc(C)nc2C(O)CC(F)(F)F)n1 (single isomer, unassigned) [Example 7b, 3,3,3-trifluoro-1-(3-methyl-1-(2-methyl-6-(3-(1-methyl-1H-benzo[d]imidazol-2-yl)azetidin-1-yl)pyrimidin-4-yl)-1H-1,2,4-triazol-5-yl)propan-1-ol]",Ki,2.5 nM
"Cc1nc(N2CC(c3nc4ccccc4n3C)C2)cc(-n2nc(C)nc2C(O)C(C)C)n1 (stereo not shown) [Example 5, 2-methyl-1-(3-methyl-1-(2-methyl-6-(3-(1-methyl-1H-benzo[d]imidazol-2-yl)azetidin-1-yl)pyrimidin-4-yl)-1H-1,2,4-triazol-5-yl)propan-1-ol]",Ki,0.41 nM
"Cc1nc(N2CC(c3nc4ccccc4n3C)C2)cc(-n2nc(C)nc2C(O)CC(F)(F)F)n1 (single isomer, unassigned) [Example 7a, 3,3,3-trifluoro-1-(3-methyl-1-(2-methyl-6-(3-(1-methyl-1H-benzo[d]imidazol-2-yl)azetidin-1-yl)pyrimidin-4-yl)-1H-1,2,4-triazol-5-yl)propan-1-ol]",Ki,4.5 nM
